Results as given in PMC12406203 (Journal of Medicinal Chemistry, 2025).

Columns and labels:
Experiment in all cases: KINOMEscan
Type in all cases: binding
[1] = biological target: T1, SRPK3 (Homo sapiens, UniProt Q9UPE1)
T1 construct: purchased Eurofins DiscoverX, LLC; host or cells: E. coli BL21-derived host (T7 phage) or HEK-293

[2] = biological target: T2, PCTK1 (Homo sapiens, UniProt Q00536)
T2 construct: purchased Eurofins DiscoverX, LLC; host or cells: E. coli BL21-derived host (T7 phage) or HEK-293

[3] = biological target: T3, TSSK1B (Homo sapiens, UniProt Q9BXA7)
T3 construct: purchased Eurofins DiscoverX, LLC; host or cells: E. coli BL21-derived host (T7 phage) or HEK-293
T3 sequence (Q9BXA7 1-367): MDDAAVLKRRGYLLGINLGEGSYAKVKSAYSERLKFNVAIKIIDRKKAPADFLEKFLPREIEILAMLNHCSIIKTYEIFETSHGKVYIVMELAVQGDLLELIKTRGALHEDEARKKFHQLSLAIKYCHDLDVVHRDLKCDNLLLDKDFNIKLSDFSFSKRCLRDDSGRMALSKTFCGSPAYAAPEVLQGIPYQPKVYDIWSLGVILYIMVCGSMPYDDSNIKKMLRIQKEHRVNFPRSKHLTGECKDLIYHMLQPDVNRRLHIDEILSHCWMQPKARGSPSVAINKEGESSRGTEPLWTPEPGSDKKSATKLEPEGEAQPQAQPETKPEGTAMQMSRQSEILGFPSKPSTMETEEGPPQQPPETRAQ

[4] = biological target: T4, ROCK2 (Homo sapiens, UniProt O75116)
T4 construct: purchased Eurofins DiscoverX, LLC; host or cells: E. coli BL21-derived host (T7 phage) or HEK-293

[5] = biological target: T5, ABL1(E255K)-phosphorylated (Homo sapiens, UniProt P00519, E255K)
T5 construct: purchased Eurofins DiscoverX, LLC; host or cells: E. coli BL21-derived (T7 phage) or HEK-293

[6] = biological target: T6, RIOK2 (Homo sapiens, UniProt Q9BVS4)
T6 construct: purchased Eurofins DiscoverX, LLC; host or cells: E. coli BL21-derived host (T7 phage) or HEK-293

[7] = biological target: T7, FGFR3 (Homo sapiens, UniProt P22607)
T7 construct: purchased Eurofins DiscoverX, LLC; host or cells: E. coli (T7 phage) or HEK-293

[8] = biological target: T8, p38α (Homo sapiens, UniProt Q16539)
T8 construct: purchased Eurofins DiscoverX, LLC; host or cells: E. coli (BL21-derived, T7 phage) or HEK-293

[9] = biological target: T9, TRKA (Homo sapiens, UniProt P04629)
T9 construct: purchased Eurofins DiscoverX, LLC; host or cells: E. coli BL21-derived host (T7 phage) or HEK-293

[10] = biological target: T10, DYRK1B (Homo sapiens, UniProt Q9Y463)
T10 construct: purchased Eurofins DiscoverX, LLC; host or cells: E. coli (T7 phage) or HEK-293

[11] = biological target: T11, CHEK1 (Homo sapiens, UniProt O14757)
T11 construct: purchased Eurofins DiscoverX, LLC; host or cells: E. coli (T7 phage) or HEK-293
T11 sequence (O14757 1-476): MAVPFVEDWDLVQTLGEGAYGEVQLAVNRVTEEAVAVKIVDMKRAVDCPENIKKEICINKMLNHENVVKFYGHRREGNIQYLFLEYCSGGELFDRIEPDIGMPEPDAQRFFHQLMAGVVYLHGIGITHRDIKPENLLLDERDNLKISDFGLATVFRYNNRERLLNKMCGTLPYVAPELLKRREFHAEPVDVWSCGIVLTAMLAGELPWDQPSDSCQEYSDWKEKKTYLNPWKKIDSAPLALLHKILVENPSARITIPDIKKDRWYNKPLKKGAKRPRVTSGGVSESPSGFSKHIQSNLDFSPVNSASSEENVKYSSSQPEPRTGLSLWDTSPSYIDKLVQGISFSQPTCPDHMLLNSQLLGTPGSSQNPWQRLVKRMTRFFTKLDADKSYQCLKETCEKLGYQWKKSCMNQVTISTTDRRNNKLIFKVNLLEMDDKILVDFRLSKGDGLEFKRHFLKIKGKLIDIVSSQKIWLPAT

[12] = biological target: T12, CDK9 (Homo sapiens, UniProt P50750)
T12 construct: purchased Eurofins DiscoverX, LLC; host or cells: E. coli (T7 phage) or HEK-293

[13] = biological target: T13, MAPKAPK5 (Homo sapiens, UniProt Q8IW41)
T13 construct: purchased Eurofins DiscoverX, LLC; host or cells: E. coli (BL21-derived, T7 phage) or HEK-293
T13 sequence (Q8IW41 1-473): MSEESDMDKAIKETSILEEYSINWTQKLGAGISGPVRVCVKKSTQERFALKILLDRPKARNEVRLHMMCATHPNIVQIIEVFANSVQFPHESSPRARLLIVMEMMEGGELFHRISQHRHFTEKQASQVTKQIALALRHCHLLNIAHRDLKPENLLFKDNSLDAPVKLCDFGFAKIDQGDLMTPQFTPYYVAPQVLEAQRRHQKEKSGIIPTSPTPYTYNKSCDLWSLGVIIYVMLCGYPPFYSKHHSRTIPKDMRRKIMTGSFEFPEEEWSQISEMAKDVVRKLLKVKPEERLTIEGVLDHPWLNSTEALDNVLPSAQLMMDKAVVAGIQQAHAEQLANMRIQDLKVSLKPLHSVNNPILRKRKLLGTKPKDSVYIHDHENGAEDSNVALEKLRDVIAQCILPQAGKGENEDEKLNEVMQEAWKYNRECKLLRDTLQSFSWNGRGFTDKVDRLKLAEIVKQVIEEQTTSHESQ

T8 sequence (Q16539 whole entry): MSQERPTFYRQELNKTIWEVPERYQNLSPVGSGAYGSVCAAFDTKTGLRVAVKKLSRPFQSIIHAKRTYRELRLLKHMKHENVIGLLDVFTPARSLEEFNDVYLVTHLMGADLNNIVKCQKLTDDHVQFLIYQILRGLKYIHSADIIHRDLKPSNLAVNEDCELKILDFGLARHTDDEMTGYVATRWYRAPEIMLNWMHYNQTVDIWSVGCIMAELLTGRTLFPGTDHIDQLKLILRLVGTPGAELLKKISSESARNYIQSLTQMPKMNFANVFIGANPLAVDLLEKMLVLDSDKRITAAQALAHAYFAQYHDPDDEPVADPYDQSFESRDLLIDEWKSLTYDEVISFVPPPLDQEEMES
T6 sequence (Q9BVS4 whole entry): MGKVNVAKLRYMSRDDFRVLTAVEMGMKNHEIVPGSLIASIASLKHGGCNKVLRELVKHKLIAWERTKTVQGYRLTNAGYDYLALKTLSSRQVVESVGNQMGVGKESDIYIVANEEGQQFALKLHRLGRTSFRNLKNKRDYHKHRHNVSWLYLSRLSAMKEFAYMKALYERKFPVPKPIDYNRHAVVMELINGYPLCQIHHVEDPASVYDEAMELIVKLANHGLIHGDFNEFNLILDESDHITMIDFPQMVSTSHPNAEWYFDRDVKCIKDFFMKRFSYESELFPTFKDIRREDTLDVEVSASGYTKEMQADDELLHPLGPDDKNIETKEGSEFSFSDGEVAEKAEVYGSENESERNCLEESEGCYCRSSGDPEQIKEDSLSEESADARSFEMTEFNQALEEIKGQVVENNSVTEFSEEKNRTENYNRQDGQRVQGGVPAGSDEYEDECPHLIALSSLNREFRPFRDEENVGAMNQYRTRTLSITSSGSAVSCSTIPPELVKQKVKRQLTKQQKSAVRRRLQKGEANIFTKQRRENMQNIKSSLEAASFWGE
T2 sequence (Q00536 whole entry): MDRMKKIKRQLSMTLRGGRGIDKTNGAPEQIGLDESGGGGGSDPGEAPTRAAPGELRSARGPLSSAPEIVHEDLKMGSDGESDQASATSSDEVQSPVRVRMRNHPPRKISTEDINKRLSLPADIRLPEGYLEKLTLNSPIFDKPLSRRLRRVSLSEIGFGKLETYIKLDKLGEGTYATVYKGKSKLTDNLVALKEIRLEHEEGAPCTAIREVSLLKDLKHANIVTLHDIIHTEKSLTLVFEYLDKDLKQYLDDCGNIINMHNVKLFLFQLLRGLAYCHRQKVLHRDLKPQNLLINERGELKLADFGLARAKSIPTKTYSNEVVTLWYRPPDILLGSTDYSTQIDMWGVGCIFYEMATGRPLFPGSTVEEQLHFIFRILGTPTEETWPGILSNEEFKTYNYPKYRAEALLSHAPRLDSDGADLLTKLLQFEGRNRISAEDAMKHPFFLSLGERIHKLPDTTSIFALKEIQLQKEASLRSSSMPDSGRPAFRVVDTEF
T4 sequence (O75116 whole entry): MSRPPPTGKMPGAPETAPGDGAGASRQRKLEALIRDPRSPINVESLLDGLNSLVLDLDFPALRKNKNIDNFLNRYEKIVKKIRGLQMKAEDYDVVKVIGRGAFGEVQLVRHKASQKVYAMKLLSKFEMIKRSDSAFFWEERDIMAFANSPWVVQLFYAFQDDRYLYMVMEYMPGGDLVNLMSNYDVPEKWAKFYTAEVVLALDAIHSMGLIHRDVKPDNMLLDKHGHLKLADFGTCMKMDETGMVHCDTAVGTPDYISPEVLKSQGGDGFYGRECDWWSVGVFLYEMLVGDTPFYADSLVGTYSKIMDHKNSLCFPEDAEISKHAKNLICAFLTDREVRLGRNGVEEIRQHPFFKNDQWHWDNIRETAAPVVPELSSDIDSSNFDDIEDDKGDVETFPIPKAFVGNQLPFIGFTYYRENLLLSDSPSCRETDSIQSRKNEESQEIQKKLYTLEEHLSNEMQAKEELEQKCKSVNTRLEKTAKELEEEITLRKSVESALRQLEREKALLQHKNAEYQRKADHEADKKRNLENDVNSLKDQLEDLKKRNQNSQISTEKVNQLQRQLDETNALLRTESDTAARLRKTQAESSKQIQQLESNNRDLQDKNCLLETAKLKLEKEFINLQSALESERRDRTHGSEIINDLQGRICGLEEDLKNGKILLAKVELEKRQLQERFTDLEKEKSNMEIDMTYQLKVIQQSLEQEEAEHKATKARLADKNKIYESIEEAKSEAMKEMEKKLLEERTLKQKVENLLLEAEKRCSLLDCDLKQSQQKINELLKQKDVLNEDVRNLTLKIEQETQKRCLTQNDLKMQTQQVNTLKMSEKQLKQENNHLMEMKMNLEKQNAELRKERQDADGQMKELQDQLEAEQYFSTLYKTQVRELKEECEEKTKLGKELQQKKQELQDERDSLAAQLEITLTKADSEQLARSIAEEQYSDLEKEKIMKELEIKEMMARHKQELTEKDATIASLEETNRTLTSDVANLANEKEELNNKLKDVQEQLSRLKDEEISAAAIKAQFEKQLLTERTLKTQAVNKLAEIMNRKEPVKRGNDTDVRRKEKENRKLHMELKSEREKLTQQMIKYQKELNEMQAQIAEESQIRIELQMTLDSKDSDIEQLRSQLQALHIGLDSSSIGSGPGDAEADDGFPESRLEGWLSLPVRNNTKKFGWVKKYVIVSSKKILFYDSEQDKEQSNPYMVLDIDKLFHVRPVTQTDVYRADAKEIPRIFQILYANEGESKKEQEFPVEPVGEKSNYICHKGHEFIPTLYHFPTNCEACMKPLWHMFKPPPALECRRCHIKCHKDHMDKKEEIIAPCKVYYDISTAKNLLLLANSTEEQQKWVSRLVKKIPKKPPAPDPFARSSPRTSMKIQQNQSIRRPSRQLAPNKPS
T7 sequence (P22607 23-806): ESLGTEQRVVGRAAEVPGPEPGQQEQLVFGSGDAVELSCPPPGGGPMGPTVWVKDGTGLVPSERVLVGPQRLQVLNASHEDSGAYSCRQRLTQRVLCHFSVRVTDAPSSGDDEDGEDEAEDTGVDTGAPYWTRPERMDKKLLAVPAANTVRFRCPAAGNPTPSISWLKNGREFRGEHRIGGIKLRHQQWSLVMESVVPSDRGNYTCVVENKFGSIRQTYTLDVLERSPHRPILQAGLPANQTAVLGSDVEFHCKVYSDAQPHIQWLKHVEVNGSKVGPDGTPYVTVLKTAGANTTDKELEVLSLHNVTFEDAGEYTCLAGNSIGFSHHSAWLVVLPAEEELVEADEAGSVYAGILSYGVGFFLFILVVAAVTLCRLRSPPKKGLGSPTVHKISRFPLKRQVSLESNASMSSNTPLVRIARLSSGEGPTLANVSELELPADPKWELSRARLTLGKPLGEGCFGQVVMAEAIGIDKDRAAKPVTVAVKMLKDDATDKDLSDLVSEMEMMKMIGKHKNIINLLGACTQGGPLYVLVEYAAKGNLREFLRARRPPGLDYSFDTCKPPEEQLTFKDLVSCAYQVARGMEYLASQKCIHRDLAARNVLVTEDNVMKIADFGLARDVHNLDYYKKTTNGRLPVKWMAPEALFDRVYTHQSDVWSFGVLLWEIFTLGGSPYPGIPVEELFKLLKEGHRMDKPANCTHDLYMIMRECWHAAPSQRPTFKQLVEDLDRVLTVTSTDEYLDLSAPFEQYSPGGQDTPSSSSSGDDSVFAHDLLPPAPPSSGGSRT
T9 sequence (P04629 33-796): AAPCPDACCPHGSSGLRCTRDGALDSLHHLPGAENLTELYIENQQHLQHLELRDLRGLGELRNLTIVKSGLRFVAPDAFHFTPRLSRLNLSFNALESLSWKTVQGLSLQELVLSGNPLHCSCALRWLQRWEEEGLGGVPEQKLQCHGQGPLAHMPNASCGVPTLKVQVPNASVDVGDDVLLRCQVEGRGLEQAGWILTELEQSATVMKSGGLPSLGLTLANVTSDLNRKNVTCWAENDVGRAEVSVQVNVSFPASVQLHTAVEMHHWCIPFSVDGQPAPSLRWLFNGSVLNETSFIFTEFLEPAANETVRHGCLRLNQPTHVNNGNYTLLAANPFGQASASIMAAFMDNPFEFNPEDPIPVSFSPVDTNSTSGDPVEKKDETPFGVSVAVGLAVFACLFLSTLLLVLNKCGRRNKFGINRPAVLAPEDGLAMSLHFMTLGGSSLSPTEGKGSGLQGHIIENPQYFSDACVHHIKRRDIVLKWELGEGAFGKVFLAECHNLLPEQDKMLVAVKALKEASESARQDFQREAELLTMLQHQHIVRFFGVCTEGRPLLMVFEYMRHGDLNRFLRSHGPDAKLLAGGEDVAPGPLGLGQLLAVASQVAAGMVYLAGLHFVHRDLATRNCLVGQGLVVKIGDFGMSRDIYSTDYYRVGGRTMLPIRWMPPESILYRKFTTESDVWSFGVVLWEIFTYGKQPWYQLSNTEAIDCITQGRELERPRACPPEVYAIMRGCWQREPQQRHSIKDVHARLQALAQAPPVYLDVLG
T1 sequence (Q9UPE1 whole entry): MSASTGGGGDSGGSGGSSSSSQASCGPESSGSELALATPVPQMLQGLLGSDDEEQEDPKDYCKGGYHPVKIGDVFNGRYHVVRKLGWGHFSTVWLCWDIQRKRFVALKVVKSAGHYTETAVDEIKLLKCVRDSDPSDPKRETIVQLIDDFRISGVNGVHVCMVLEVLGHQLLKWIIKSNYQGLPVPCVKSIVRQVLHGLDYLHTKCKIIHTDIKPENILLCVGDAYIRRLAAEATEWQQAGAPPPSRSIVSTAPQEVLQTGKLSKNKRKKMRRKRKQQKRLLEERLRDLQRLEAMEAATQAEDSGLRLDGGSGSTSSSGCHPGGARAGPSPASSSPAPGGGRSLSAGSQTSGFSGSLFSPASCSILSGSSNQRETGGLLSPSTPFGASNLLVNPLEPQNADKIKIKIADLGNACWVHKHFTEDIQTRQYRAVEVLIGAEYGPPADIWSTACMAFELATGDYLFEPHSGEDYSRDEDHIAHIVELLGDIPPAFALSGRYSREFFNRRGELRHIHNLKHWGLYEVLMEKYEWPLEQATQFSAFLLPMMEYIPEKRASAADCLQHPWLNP

SMILES | RA @ 1000nM [1] | RA @ 10000nM [1] | RA @ 1000nM [2] | RA @ 10000nM [2] | RA @ 1000nM [3] | RA @ 10000nM [3] | RA @ 1000nM [4] | RA @ 10000nM [4] | RA @ 1000nM [5] | RA @ 10000nM [5] | RA @ 1000nM [6] | RA @ 10000nM [6] | RA @ 1000nM [7] | RA @ 10000nM [7] | RA @ 1000nM [8] | RA @ 10000nM [8] | RA @ 1000nM [9] | RA @ 10000nM [9] | RA @ 1000nM [10] | RA @ 10000nM [10] | further results
CC(C)Cn1ncc2cc(Cc3ccc(F)cc3F)c(C(=O)NCCN(C)C)cc21 [Compound 94, 5-(2,4-Difluorobenzyl)-N-(2-(dimethylamino)ethyl)-1-isobutyl-1H-indazole-6-carboxamide] | 77% | 100% | 96% | 92% | 77% | 89% | 87% | 96% | 96% | 55% | 85% | 92% | 100% | 100% | 2.3% | 0.4% | 98% | 94% | 100% | 85% | RA @ 1000nM [11]: 100%; RA @ 10000nM [11]: 100%; RA @ 1000nM [12]: 100%; RA @ 10000nM [12]: 100%; RA @ 1000nM [13]: 100%; RA @ 10000nM [13]: 100%
CN(C)CCNC(=O)c1cc2c(cnn2CC2CCCCC2)cc1Cc1ccc(F)cc1F [Compound 95, 1-(Cyclohexylmethyl)-5-(2,4-difluorobenzyl)-N-(2-(dimethylamino)ethyl)-1H-indazole-6-carboxamide] | 92% | 99% | 87% | 79% | 100% | 79% | 83% | 100% | 96% | 93% | 88% | 81% | 100% | 92% | 6.7% | 0.1% | 100% | 92% | 95% | 100% | RA @ 1000nM [11]: 100%; RA @ 10000nM [11]: 100%; RA @ 1000nM [12]: 100%; RA @ 10000nM [12]: 93%; RA @ 1000nM [13]: 100%; RA @ 10000nM [13]: 100%
